Source: the NIST ThermoML archive (doi:10.1016/j.tca.2006.10.025)
± gives the expanded uncertainty stated by the source.

Key:
[1] = molar heat capacity at constant pressure; xn = mol fraction of the nth substance listed; settings: 303.15 K, 101 kPa, Liquid, Small sample (50 mg) DSC
[2] = excess molar enthalpy (molar enthalpy of mixing); xn = mol fraction of the nth substance listed; settings: 303.15 K, 101 kPa, Liquid, Flow calorimetry
[3] = molar heat capacity at constant pressure; settings: 101.33 kPa, Liquid, Small sample (50 mg) DSC
[4] = 303.15 K; 101.33 kPa; Liquid; Vibrating tube method

For `C[S+](C)[O-]` [dimethyl sulfoxide] + CCO, the “molar heat capacity at constant pressure” value ([1]; x1 = 0.0356) was 117.9 ± 1.8 J/K/mol, the “molar heat capacity at constant pressure” value ([1]; x1 = 0.0504) was 119.1 ± 1.8 J/K/mol and the “molar heat capacity at constant pressure” value ([1]; x1 = 0.1092) was 121.7 ± 1.9 J/K/mol. For the same molecule, the “molar heat capacity at constant pressure” value ([1]; x1 = 0.1636) was 121.8 ± 1.9 J/K/mol, the “molar heat capacity at constant pressure” value ([1]; x1 = 0.2647) was 124.6 ± 1.9 J/K/mol and the “molar heat capacity at constant pressure” value ([1]; x1 = 0.3441) was 126.3 ± 2 J/K/mol. The “molar heat capacity at constant pressure” value ([1]; x1 = 0.4469) was 129.9 ± 2 J/K/mol, the “molar heat capacity at constant pressure” value ([1]; x1 = 0.557) was 133 ± 2.1 J/K/mol and the “molar heat capacity at constant pressure” value ([1]; x1 = 0.6498) was 136.8 ± 2.1 J/K/mol. For the same molecule, the “molar heat capacity at constant pressure” value ([1]; x1 = 0.7615) was 141 ± 2.2 J/K/mol, the “molar heat capacity at constant pressure” value ([1]; x1 = 0.8872) was 146.6 ± 2.3 J/K/mol and the “molar heat capacity at constant pressure” value ([1]; x1 = 0.9408) was 148 ± 2.3 J/K/mol. The excess molar enthalpy ([2]; x1 = 0.0332) was 0.123 ± 0.004 kJ/mol, the excess molar enthalpy ([2]; x1 = 0.0642) was 0.215 ± 0.004 kJ/mol and the excess molar enthalpy ([2]; x1 = 0.0933) was 0.281 ± 0.005 kJ/mol. For the same molecule, the excess molar enthalpy ([2]; x1 = 0.1207) was 0.34 ± 0.005 kJ/mol, the excess molar enthalpy ([2]; x1 = 0.1707) was 0.409 ± 0.006 kJ/mol and the excess molar enthalpy ([2]; x1 = 0.2154) was 0.455 ± 0.006 kJ/mol. The excess molar enthalpy ([2]; x1 = 0.2917) was 0.502 ± 0.007 kJ/mol, the excess molar enthalpy ([2]; x1 = 0.3543) was 0.509 ± 0.007 kJ/mol and the excess molar enthalpy ([2]; x1 = 0.4516) was 0.489 ± 0.006 kJ/mol. For the same molecule, the excess molar enthalpy ([2]; x1 = 0.5527) was 0.442 ± 0.006 kJ/mol, the excess molar enthalpy ([2]; x1 = 0.6222) was 0.397 ± 0.005 kJ/mol and the excess molar enthalpy ([2]; x1 = 0.7119) was 0.322 ± 0.005 kJ/mol. The excess molar enthalpy ([2]; x1 = 0.7671) was 0.273 ± 0.004 kJ/mol, the excess molar enthalpy ([2]; x1 = 0.8317) was 0.202 ± 0.003 kJ/mol and the excess molar enthalpy ([2]; x1 = 0.8682) was 0.157 ± 0.003 kJ/mol. The excess molar enthalpy ([2]; x1 = 0.9081) was 0.118 ± 0.002 kJ/mol and the excess molar enthalpy ([2]; x1 = 0.9518) was 0.062 ± 0.002 kJ/mol.

For `CO` [methanol], the “molar heat capacity at constant pressure” value ([3]; 288.15 K) was 78.1 ± 1.2 J/K/mol, the “molar heat capacity at constant pressure” value ([3]; 293.15 K) was 79.3 ± 1.2 J/K/mol and the “molar heat capacity at constant pressure” value ([3]; 298.15 K) was 81 ± 1.3 J/K/mol. For the same molecule, the “molar heat capacity at constant pressure” value ([3]; 303.15 K) was 82.2 ± 1.3 J/K/mol, the “molar heat capacity at constant pressure” value ([3]; 308.15 K) was 83.4 ± 1.3 J/K/mol and the “molar heat capacity at constant pressure” value ([3]; 313.15 K) was 85.6 ± 1.3 J/K/mol. For the same molecule, the “molar heat capacity at constant pressure” value ([3]; 318.15 K) was 87.5 ± 1.4 J/K/mol, the “molar heat capacity at constant pressure” value ([3]; 323.15 K) was 89.5 ± 1.4 J/K/mol and the mass density [4] was 781.81 ± 0.16 kg/m3.

With `CCCCCCCCCCO` [decan-1-ol] + C[S+](C)[O-] the “molar heat capacity at constant pressure” value ([1]; x2 = 0.0868) was 355.3 ± 5.5 J/K/mol, the “molar heat capacity at constant pressure” value ([1]; x2 = 0.1641) was 338 ± 5.2 J/K/mol and the “molar heat capacity at constant pressure” value ([1]; x2 = 0.2592) was 316.3 ± 4.9 J/K/mol. For the same molecule, the “molar heat capacity at constant pressure” value ([1]; x2 = 0.4231) was 282.4 ± 4.4 J/K/mol, the “molar heat capacity at constant pressure” value ([1]; x2 = 0.5259) was 259.2 ± 4 J/K/mol and the “molar heat capacity at constant pressure” value ([1]; x2 = 0.6431) was 235.2 ± 3.6 J/K/mol. For the same molecule, the “molar heat capacity at constant pressure” value ([1]; x2 = 0.7082) was 221.4 ± 3.4 J/K/mol, the “molar heat capacity at constant pressure” value ([1]; x2 = 0.7997) was 201 ± 3.1 J/K/mol and the “molar heat capacity at constant pressure” value ([1]; x2 = 0.8618) was 186.2 ± 2.9 J/K/mol. The “molar heat capacity at constant pressure” value ([1]; x2 = 0.8908) was 179.2 ± 2.8 J/K/mol, the “molar heat capacity at constant pressure” value ([1]; x2 = 0.9159) was 172.9 ± 2.7 J/K/mol and the “molar heat capacity at constant pressure” value ([1]; x2 = 0.9596) was 162.1 ± 2.5 J/K/mol. The excess molar enthalpy ([2]; x2 = 0.1006) was 0.466 ± 0.008 kJ/mol, the excess molar enthalpy ([2]; x2 = 0.1828) was 0.876 ± 0.012 kJ/mol and the excess molar enthalpy ([2]; x2 = 0.2512) was 1.16 ± 0.015 kJ/mol. For the same molecule, the excess molar enthalpy ([2]; x2 = 0.3091) was 1.33 ± 0.017 kJ/mol, the excess molar enthalpy ([2]; x2 = 0.4016) was 1.48 ± 0.019 kJ/mol and the excess molar enthalpy ([2]; x2 = 0.4722) was 1.52 ± 0.019 kJ/mol. The excess molar enthalpy ([2]; x2 = 0.573) was 1.51 ± 0.019 kJ/mol, the excess molar enthalpy ([2]; x2 = 0.6414) was 1.48 ± 0.019 kJ/mol and the excess molar enthalpy ([2]; x2 = 0.7286) was 1.37 ± 0.017 kJ/mol. It also gave an excess molar enthalpy ([2]; x2 = 0.8011) of 1.26 ± 0.016 kJ/mol, an excess molar enthalpy ([2]; x2 = 0.843) of 1.14 ± 0.015 kJ/mol and an excess molar enthalpy ([2]; x2 = 0.8895) of 0.952 ± 0.013 kJ/mol. It also gave an excess molar enthalpy ([2]; x2 = 0.9148) of 0.821 ± 0.012 kJ/mol, an excess molar enthalpy ([2]; x2 = 0.9416) of 0.628 ± 0.011 kJ/mol and an excess molar enthalpy ([2]; x2 = 0.9555) of 0.495 ± 0.012 kJ/mol. The excess molar enthalpy ([2]; x2 = 0.9699) was 0.354 ± 0.011 kJ/mol and the excess molar enthalpy ([2]; x2 = 0.9847) was 0.191 ± 0.011 kJ/mol.

For `C[S+](C)[O-]` [dimethyl sulfoxide], the “molar heat capacity at constant pressure” value ([3]; 288.15 K) was 147.8 ± 2.3 J/K/mol, the “molar heat capacity at constant pressure” value ([3]; 293.15 K) was 149.4 ± 2.3 J/K/mol and the “molar heat capacity at constant pressure” value ([3]; 298.15 K) was 151.5 ± 2.3 J/K/mol. The “molar heat capacity at constant pressure” value ([3]; 303.15 K) was 152.4 ± 2.4 J/K/mol, the “molar heat capacity at constant pressure” value ([3]; 308.15 K) was 153.4 ± 2.4 J/K/mol and the “molar heat capacity at constant pressure” value ([3]; 313.15 K) was 155.4 ± 2.4 J/K/mol. For the same molecule, the “molar heat capacity at constant pressure” value ([3]; 318.15 K) was 155.6 ± 2.4 J/K/mol, the “molar heat capacity at constant pressure” value ([3]; 323.15 K) was 156.6 ± 2.4 J/K/mol and the mass density [4] was 1090.45 ± 0.11 kg/m3.
